# Experimental data taken from US5919668A, “Non-reducing saccharide and its production and use” (Kabushiki Kaisha Hayashibara Seibutsu Kagaku Kenkyujo, priority 1994, dated 1999).
# Entries after “also recorded” stand apart in the source; their conditions may differ.
# Assays:
# [1] = Maillard reaction (coloration with glycine, absorbance at 480 nm); format: physicochemical; details: for Coloration degree at 480 nm: 10% saccharide, 1% glycine, 50 mM phosphate buffer pH7.0, 100° C., 90 minutes, 1 cm cuvette
# Protocol: Solutions of 10% saccharide preparation PI, PII, PIII, PIV or PV prepared in Experiment 4 and 1% glycine in 50 mM phosphate buffer (pH7.0) were incubated at 100° C. for 90 minuets, cooled and determined in 1 cm cuvette for absorbance at 480 nm. As control, maltotriose, maltotetraose, maltopentaose, maltohexaose and maltoheptaose which were used as the starting materials were treated similarly as above and determined for absorbance at 480 nm.
# 10% High-purity trehalose preparation, purity of 99.5%, obtained by the method in Experiment 17 and 1% glycine in 50 mM phosphate buffer (pH7.0) was incubated at 100° C. for 90 minutes, cooled and measured in lcm cuvette for absorbance at 480 nm. As control, glucose and maltose were treated similarly as above and then measured for absorbance at 480 nm.
# [2] = tested on: non-reducing saccharide-forming enzyme; format: biochemical, Rhizobium species M-11; details: for Composition: residual substrate: non-reducing saccharide-forming enzyme, 48 h, pH 7; for Composition: newly formed saccharide: 20% substrate, 2 units/g, 40° C., pH7.0, 48 hours
# Protocol: 20% Aqueous solutions of glucose, maltose, maltotriose, maltotetraose, maltopentaose, maltohexaose or maltoheptaose as substrate were prepared, added with 2 units/g substrate solid of the purified enzyme obtained in Experiment 2, allowed to react at 40° C. and pH7.0 for 48 hours, deionized and analyzed for reaction products on high-performance liquid chromatography using "WAKO BEADS WB-T-330", a product of Wako Pure Chemical Industries, Ltd., Osaka, Japan. The high-performance liquid chromatography was conducted at ambient temperature, where water as eluent was flowed at a rate of 0.5 ml/min and "Model RI-8012", a differential reflactometer commercialized by Tosoh Corp., Tokyo, Japan, was used for analysis.
# [3] = target: T1, trehalose-releasing enzyme (Rhizobium sp. M-11, UniProt Q53238); format: biochemical, Rhizobium species M-11; details: trehalose-releasing enzyme, 48 h, pH 7
# T1 construct: M-11, about 58-68 kDa
# T1 sequence (Q53238 1-596): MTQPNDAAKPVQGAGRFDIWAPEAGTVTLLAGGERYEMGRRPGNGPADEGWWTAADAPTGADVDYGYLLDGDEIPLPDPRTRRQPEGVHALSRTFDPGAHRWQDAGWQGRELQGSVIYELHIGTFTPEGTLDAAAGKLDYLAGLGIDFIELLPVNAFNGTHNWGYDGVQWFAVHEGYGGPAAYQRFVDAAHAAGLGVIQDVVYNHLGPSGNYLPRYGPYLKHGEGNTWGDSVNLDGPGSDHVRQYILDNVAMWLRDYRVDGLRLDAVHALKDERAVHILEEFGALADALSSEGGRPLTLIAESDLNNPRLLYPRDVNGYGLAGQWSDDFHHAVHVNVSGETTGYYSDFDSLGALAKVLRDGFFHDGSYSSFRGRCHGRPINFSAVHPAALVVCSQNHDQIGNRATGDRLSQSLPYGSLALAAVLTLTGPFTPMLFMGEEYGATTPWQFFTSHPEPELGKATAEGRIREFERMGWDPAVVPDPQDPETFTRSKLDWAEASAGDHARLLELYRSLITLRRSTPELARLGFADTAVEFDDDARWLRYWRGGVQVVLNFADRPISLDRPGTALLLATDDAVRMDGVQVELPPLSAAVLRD
# Protocol: Alpha-glycosyl trehaloses as substrates were prepared in accordance with the method described in Japanese Patent Application No. 349,216/93. More particularly, 20% aqueous solutions of maltotriose, maltotetraose, maltopentaose, maltohexaose or maltoheptaose as reducing partial starch hydrolysate were added with 2 units/g substrate solid of a purified non-reducing saccharide-forming enzyme obtained by the method in […], reacted at 40° C. and pH7.0 for 48 hours, heated for inactivation, filtered, deionized, concentrated in conventional manner and applied to ion exchange column chromatography on a strongly-acidic cation exchange "XT-1016" in sodium form. The ion exchange resin was packed in 3 jacketed-stainless steel columns, inner diameter of 2.0 cm, length of 1 m, and the columns were cascaded, loaded with 5 v/v % reaction saccharide liquid against the resin and injected with 55° C. water at SV0.13 for fractionation while keeping the temperature inside the columns at 55° C., thus obtaining high-purity preparations of non-reducing saccharides with glucose polymerization degrees of 3 or higher.
# 20% Aqueous solutions of these five types of non-reducing saccharides or alpha-glycosyl trehaloses were prepared, added with 2 units/g substrate solid of the purified trehalose-releasing enzyme obtained in Experiment 15, reacted at 40° C. and pH7.0 for 48 hours, deionized and subjected to high-performance liquid chromatography on "WAKO BEADS WB-T-330" for analysis of reaction products. As control, maltotriose, maltotetraose, maltopentaose, maltohexaose and maltoheptaose were subjected to the purified trehalose-releasing enzyme similarly as above and then analyzed on high-performance liquid chromatography.
# [4] = Reducing power by the Somogyi-Nelson method, represented in terms of DE; format: physicochemical
# Protocol: The high-purity preparations of the newly formed saccharides were determined for reducing power by the Somogyi-Nelson method and represented in terms of DE.
# [5] = Test for assimilation in vivo (blood sugar and insulin levels); details: 30 g oral, healthy men
# Protocol: In accordance with the method reported by Atsuji et al., Rinsho Eiyo (Clinical Nutrition), Vol.41, No. 2, pp.200-208 (1972), 30 g of a high-purity trehalose preparation, purity of 99.5%, obtained by the method in Experiment 17 was prepared into 20 w/v % aqueous solution and orally administered to healthy men, age of 26, 27, 28, 29, 30 or 31 years, after which their bloods were periodically sampled and measured for blood sugar and insulin levels. Glucose was used as control.
# [6] = tested on: mice; experiment: Acute toxicity test, oral administration in mice; format: in vivo; details: oral, mice
# Protocol: (§1) Acute toxicity tests were conducted on the non-reducing saccharide preparations PI, PII, PIII, PIV and PV prepared in Experiment 4, where they were orally administered to 7 week-old dd mice. […] Thus the LD50 of these saccharides was at least 50 g/kg or higher.
# (§2) An acute toxicity test was conducted on a high-purity trehalose preparation obtained by the method in Experiment 17, purity of 99.5%, where it was orally administered in mice. […] Thus its LD50 would be briefly 50 g/kg or higher.
# [7] = Acute toxicity test, oral administration in mice; format: in vivo; details: mouse, in vivo; oral, mice
# Protocol: as §1, §2
# [8] = tested on: pig kidney trehalase; experiment: Degradation by pig kidney trehalase; format: biochemical; details: trehalose, or trehalose formed from PI-PV; pH5.7, 37° C., 18 hours for the latter
# Protocol: In order to purify trehalose from respective reaction products, they were decolored, deionized, concentrated and subjected to column fractionation on a strongly-acidic cation exchange of sodium form "XT-1016", followed by recovering high-purity fractions with trehalose contents of 97% or higher. The fractions were then concentrated to about 65% and allowed to standing at 25° C. for 2 days to crystallize out crystalline trehalose hydrate which was then separated and dried in vacuo to obtain a high-purity preparation with a trehalose content of 99% or higher. The yields against respective starting substrates on dry solid basis were as follows: from glycosyl trehalose, 9.5%; from maltosyl trehalose, 14.9%; from maltotriosyl trehalose, 16.0%; from maltotetraosyl trehalose, 18.5%; and from maltopentaosyl trehalose, 17.7%. […] As evident from the above results, the saccharides formed by subjecting alpha-glycosyl trehaloses to the trehalose-releasing enzyme were identified to be trehalose.
# [9] = Properties of products (hygroscopicity, viscosity, stability, tonicity); format: physicochemical
Compound,Coloration degree at 480 nm [1],Composition: residual substrate [2] [%],Composition: residual substrate [3] [%],Composition: newly formed saccharide [2] [%],other results
"OC[C@H]1OC(O)[C@H](O)[C@@H](O)[C@@H]1O (stereo partly drawn) [Glucose, glucose]",1.671,100.0,,,Formation of new saccharides from substrate (in words) [2]: No saccharides were newly formed
"OC[C@H]1O[C@H](O[C@H]2[C@H](O)[C@@H](O)[C@@H](O[C@H]3[C@H](O)[C@@H](O)[C@@H](O[C@H]4[C@H](O)[C@@H](O)[C@@H](O[C@H]5[C@H](O)[C@@H](O)[C@@H](O[C@H]6[C@H](O)[C@@H](O)C(O)O[C@@H]6CO)O[C@@H]5CO)O[C@@H]4CO)O[C@@H]3CO)O[C@@H]2CO)[C@H](O)[C@@H](O)[C@@H]1O (stereo partly drawn) [Maltohexaose, maltohexaose, reference compound]",0.318,6.5,100,93.5,
"OC[C@H]1O[C@H](O[C@H]2[C@H](O)[C@@H](O)C(O)O[C@@H]2CO)[C@H](O)[C@@H](O)[C@@H]1O (mixture of isomers) [Maltose, maltose]",0.926,100.0,,,Formation of new saccharides from substrate (in words) [2]: No saccharides were newly formed
"OC[C@H]1O[C@H](O[C@H]2O[C@H](CO)[C@@H](O)[C@H](O)[C@H]2O)[C@H](O)[C@@H](O)[C@@H]1O [Trehalose, alpha,alpha-trehalose]",0.006,,,,"Coloration relative to glucose and maltose ([1]; 480 nm, with glycine): 0.4-0.6%; Reducing power (in words) [4]: exhibits no reducing power; Time of maximum blood sugar level after administration ([5]; 20 w/v % aqueous solution): 0.5 to 1 h; Time of maximum insulin level after administration ([5]; 20 w/v % aqueous solution): 0.5 to 1 h; Assimilation (in words) ([5]; glucose as control): trehalose behaved similarly as glucose did; also recorded: readily digested and absorbed and then metabolized and utilized as energy source; Animal death at the possible highest dose [6]: caused no death even in the possible highest dose; LD50 [7]: ≥ 50000 mg/kg; Degradation by pig kidney trehalase (in words) [8]: degraded by the trehalase derived from pig kidney"
"OC[C@H]1O[C@H](O[C@H]2[C@H](O)[C@@H](O)[C@@H](O[C@H]3[C@H](O)[C@@H](O)[C@@H](O[C@H]4[C@H](O)[C@@H](O)[C@@H](O[C@H]5[C@H](O)[C@@H](O)[C@@H](O[C@H]6[C@H](O)[C@@H](O)[C@@H](O[C@H]7[C@H](O)[C@@H](O)C(O)O[C@@H]7CO)O[C@@H]6CO)O[C@@H]5CO)O[C@@H]4CO)O[C@@H]3CO)O[C@@H]2CO)[C@H](O)[C@@H](O)[C@@H]1O (stereo partly drawn) [Maltoheptaose, maltoheptaose, reference compound]",0.271,6.6,100,93.4,
OC[C@H]1O[C@H](O[C@H]2O[C@H](CO)[C@@H](O)[C@H](O)[C@H]2O)[C@H](O)[C@@H](O)[C@@H]1O [Example A-5],,,,,Hygroscopicity (in words) [9]: substantially free of hygroscopicity

# Further lines, with some results ahead:
Coloration degree at 480 nm [1],Composition: residual substrate [2] [%],Composition: residual substrate [3] [%],Composition: newly formed saccharide [2] [%],Compound,other results
0.475,14.4,100,85.6,"OC[C@H]1O[C@H](O[C@H]2[C@H](O)[C@@H](O)[C@@H](O[C@H]3[C@H](O)[C@@H](O)[C@@H](O[C@H]4[C@H](O)[C@@H](O)C(O)O[C@@H]4CO)O[C@@H]3CO)O[C@@H]2CO)[C@H](O)[C@@H](O)[C@@H]1O (stereo partly drawn) [Maltotetraose, maltotetraose, reference compound]",
0.623,65.0,100,35.0,"OC[C@H]1O[C@H](O[C@H]2[C@H](O)[C@@H](O)[C@@H](O[C@H]3[C@H](O)[C@@H](O)C(O)O[C@@H]3CO)O[C@@H]2CO)[C@H](O)[C@@H](O)[C@@H]1O (stereo partly drawn) [Maltotriose, maltotriose, reference compound]",
0.369,7.3,100,92.7,"OC[C@H]1O[C@H](O[C@H]2[C@H](O)[C@@H](O)[C@@H](O[C@H]3[C@H](O)[C@@H](O)[C@@H](O[C@H]4[C@H](O)[C@@H](O)[C@@H](O[C@H]5[C@H](O)[C@@H](O)C(O)O[C@@H]5CO)O[C@@H]4CO)O[C@@H]3CO)O[C@@H]2CO)[C@H](O)[C@@H](O)[C@@H]1O (stereo partly drawn) [Maltopentaose, maltopentaose, reference compound]",
